US5843916A, “Cyclic amp analogues, individually and in pairs, to inhibit neoplastic cell growth” (priority 1994, dated 1998)
“Also recorded” adds a separate entry of the source. Like-named read-outs stand apart in the source and are kept apart here. One block for each compound: values may come before it.

Legend:
[1] = tested on: breast and colon cancer lines (MCF-7, T-47D, ZR-75-1, MCF-7ras, MDA-MB-231, BT-20, HBL-100, LS-174T, WiDr, HT-29); experiment: Growth inhibition of breast and colon cancer lines (FIG. 1); type: cell-based, human
MCF-7 [2] = experiment: Cell cycle analysis by flow cytometry (Table 3); type: cell-based, human; conditions: 10 μM; 3 days
Method: DNA histograms were generated on FACS II by using the DNA intercalating dye propidium iodide as described by Braylan et al. in Cytometry 2: 337-343, 1982. The percentage of cells in each cycle phase was calculated by using a PDP-11/34 computer and software as described by Neckers et al., Mol. Cell. Biol. 6: 4244-4250, 1986.
Breast (MCF-7, MDA-MB-231) and colon (LS-174T) cancer cells in log
phase (untreated control) and 3 days after treatment with 8-C1-cAMP
(10 μM), N^6 -benzyl-cAMP (35 μM), and 8-Cl-adenosine (5
were analyzed for DNA content by flow cytometric analysis as described
below. Similar results were obtained with other breast and colon cancer

[3] = tested on: DMBA-induced mammary carcinomas; experiment: Growth of DMBA-induced mammary carcinomas, pellet (Table 4); type: in vivo, rat; conditions: for tumor growth: 10 mg pellet for 8-Cl-cAMP, implanted twice every two weeks
Method: Treated tumors regress almost 100% within 30 days.
^b 8Cl-cAMP (20 mg pellet per rat, consisting of 10 mg 8Cl-cAMP and […]
mg cholesterol), was implanted on day 0 and day 14.

myc-K562 = experiment: Growth inhibition of leukemic cells (Table 12); type: cell-based; conditions: Homo sapiens
[4] = target: T1, Protein kinase type I (cAKI) (Oryctolagus cuniculus, UniProt G1TDN4); experiment: Protein kinase activation (Table 15); type: biochemical, rabbit (skeletal muscle); conditions: half-maximum activation; U. M.: unmeasurable
T1 construct: prepared from rabbit skeletal muscle and bovine heart; from tissue; host or cells: rabbit skeletal muscle
T1 sequence (G1TDN4 1-381): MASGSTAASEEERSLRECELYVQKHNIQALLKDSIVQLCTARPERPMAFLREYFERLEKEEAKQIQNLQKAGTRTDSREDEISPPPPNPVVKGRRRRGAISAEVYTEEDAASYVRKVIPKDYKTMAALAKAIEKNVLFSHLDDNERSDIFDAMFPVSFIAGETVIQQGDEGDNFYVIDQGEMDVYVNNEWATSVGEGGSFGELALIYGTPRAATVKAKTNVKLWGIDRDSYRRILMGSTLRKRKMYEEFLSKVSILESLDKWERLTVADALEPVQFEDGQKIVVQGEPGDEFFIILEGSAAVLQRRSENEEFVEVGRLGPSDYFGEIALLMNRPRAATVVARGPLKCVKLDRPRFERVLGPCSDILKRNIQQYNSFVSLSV
Method: (§1) ATP to Kemptide as described by Ogreid et al., Eur. J. Biochem. 150: 219-227 (1985).
(§2) Protein kinases types I (cAKI) and II (cAKII) were
(§3) prepared from rabbit skeletal muscle and bovine heart,
(§4) respectively, as described in D.o slashed.skeland et al. (J. Biol.
(§5) of the protein kinase in Ogreid et al. (Eur. J. Biochem.

[5] = target: T2, Protein kinase type II (cAKII) (Bos taurus, UniProt P00515); experiment: Protein kinase activation (Table 15); type: biochemical, bovine (heart); conditions: half-maximum activation; U. M.: unmeasurable
T2 construct: prepared from rabbit skeletal muscle and bovine heart; from tissue; host or cells: bovine heart
T2 sequence (P00515 2-401 limits assumed): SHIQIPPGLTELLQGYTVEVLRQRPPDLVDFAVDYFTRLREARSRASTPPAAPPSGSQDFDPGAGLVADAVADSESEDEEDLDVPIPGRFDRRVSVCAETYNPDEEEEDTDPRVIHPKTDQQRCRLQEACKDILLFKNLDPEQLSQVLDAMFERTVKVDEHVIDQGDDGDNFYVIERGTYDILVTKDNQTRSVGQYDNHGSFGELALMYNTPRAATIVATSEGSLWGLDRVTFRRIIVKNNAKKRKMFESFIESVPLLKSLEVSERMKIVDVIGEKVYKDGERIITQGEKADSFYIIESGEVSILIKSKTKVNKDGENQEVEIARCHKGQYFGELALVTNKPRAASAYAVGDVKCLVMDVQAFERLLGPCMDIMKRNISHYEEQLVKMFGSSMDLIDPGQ
Method: as §1, §2, §3, §4, §5

[6] = tested on: HL-60 human leukemia cells; experiment: Growth inhibition of HL-60 leukemia cells (Example 3, Table 16); type: cell-based; conditions: for IC50: Homo sapiens
In short: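 HL-60 cells were grown in suspension in RPMI 1640 with 10% heat-inactivated FBS, starting at 1 × 10^5 cells/dish. Cells were counted on a Coulter Counter after 3 or 6 days of exposure. IC50 values were read from dose-response data and averaged over two or more separate experiments.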

[7] = tested on: LS-174T human colon carcinoma cells; experiment: Additive growth inhibition with 8-Cl-cAMP (Table 19); type: cell-based; conditions: Homo sapiens, LS174T, 96 h; 1 μM; 4 days
Method: The medium was changed every 48 hours.
At desired times, cell counts were performed in duplicate on a Coulter Counter after harvesting cells with gentle trypsinization.
The analogues were added at 24

[8] = tested on: RI and RII cAMP receptor proteins, breast (MDA-MB-231) and colon (LS-174T) cancer cells; experiment: cAMP receptor protein levels, breast and colon cancer cells (FIG. 6); type: cell-based, human; conditions: for RI and RII receptor levels: three days, FIG. 6
Method: Photoactivated incorporation of 8-N3 [^32 P] was performed as described below.
M is marker proteins of known molecular weight.
The incubations were carried out at 23° C. for 60 minutes in 96-well immunoplates. […] The gels were fixed, dried, and exposed to X-ray films overnight.

MCF-7 [9] = experiment: Growth of MCF-7 cells (Tables 3, 11); type: cell-based; conditions: Homo sapiens, MCF7, 72 h
Method: All breast cancer cell lines were grown in IMEM supplemented with 10% fetal bovine serum, HEPES 20 mM, penicillin-streptomycin, and extra glutamine. Colon carcinoma cell lines were grown in EMEM supplemented with 10% FBS, EMEM, NEAA, HEPES 20 mM, extra glutamine, and penicillin-streptomycin. The cells were grown at 37° C. in humidified incubators in an atmosphere of 5% CO2.
For cell growth experiments, 2-3×10^5 cells/60 mm dish were seeded, and 24 hours later (Day 0), the medium was removed, and fresh medium and the additives were added then and every 48 hours thereafter. The compounds of the present invention were added using 100X concentrated stock solutions. At desired times, cell counts in duplicate were performed on a Coulter counter after harvesting the cells with gentle trypsinization.

[10] = target: T3, RI, regulatory subunit of cAMP-dependent protein kinase type I (Oryctolagus cuniculus, UniProt G1TDN4); conditions: cited from earlier work
T3 construct: from tissue
T3 sequence (G1TDN4 1-381): as the sequence (G1TDN4 1-381) above

[11] = tested on: RIα and RIIβ isoforms of the cAMP receptor protein; protein kinase type I and II; conditions: cited from earlier work
L1210 leukemia = experiment: Life span of L1210-inoculated BDF1 mice (Table 7)
[12] = tested on: cultured human fibroblasts; conditions: cited from earlier work
neuroblastoma cells = conditions: two contradicting studies; cited from earlier work
[13] = tested on: spindle cell sarcoma with multiple metastasis; conditions: cited from earlier work
[14] = tested on: mammary carcinomas induced by DMBA; conditions: treatment of hosts; cited from earlier work
[15] = Table 11, 8-Cl-cAMP 10 μM, 8-Cl-adenosine 5 μM, DBcAMP 500 μM, control 100
[16] = no test described at this place

Compound: Nc1ncnc2c1nc(Cl)n2[C@@H]1O[C@@H]2COP(=O)(O)O[C@H]2[C@H]1O [8-Cl-cAMP, 8-chloro-adenosine 3': 5'-monophosphate]
- growth inhibition of cancer lines ([1]; densitometry text): 45-70%
- % Cell Population in G1 (MCF-7 [2]): 53%
- % Cell Population in G2M (MCF-7 [2]): 25%
- % Cell Population in S (MCF-7 [2]): 22%
- cell cycle phase distribution (MCF-7 [2]): not appreciably different
- tumor growth [3]: completely stopped tumor growth
- tumor regression ([3]; 10 mg pellet, within 30 days): ~100%
- Mean % of change in tumor volume ([3]; pellet day 0 and day 14, day 30, mean ± S.E.): -96 ± 20%
- IC50 (myc-K562): 20 µM
- Activation Constant (Ka), cAKI [4]: 1.8 × 10^-8
- Activation Constant (Ka), cAKII [5]: 1.0 × 10^-7
- growth inhibitory potency ([6]; HL-60): potent growth inhibitor of HL-60 cells
- IC50 ([6]; HL-60, 72 h, read-out: Growth inhibition (IC50), Day 3): 5 µM
- IC50 ([6]; HL-60, 144 h, read-out: Growth inhibition (IC50), Day 6): 0.4 µM
- inhibition at 1 µM [7]: 30%
- decrease in the RI level ([8]; densitometric tracings): 70-80%
- increase in the ratio of RII to RI ([8]; densitometric tracings): two- to three-fold increase
- RI and RII receptor levels [8]: the cAMP receptor protein with a molecular weight of 52,000 increased appreciably with concomitant decrease of the 48,000 RI receptor protein
- inhibition at 10 µM (MCF-7 [9]): 57%
- activity at 10 µM (MCF-7 [9]; 10 μM, 3 days, control 100 (Table 3)): 40%
- activity at 10 µM (MCF-7 [9]; [15]): 43%
- relative affinity Ki (cAMP)/Ki (analogue), RI Site A ([10]; Site A (Site 2), literature): 2.71
- relative affinity Ki (cAMP)/Ki (analogue), RI Site B ([10]; Site B (Site 1), literature): 2.0
- site selectivity of binding to RI [10]: binds to site 2 of the RI receptor
- effect on protein kinase isozyme type I ([11]; literature): drastically downregulates type I protein kinase
- effect on protein kinase isozyme type II ([11]; literature): upregulating type II protein kinase in its holoenzyme form
- effect on RIIβ isoform [11, 16]: upregulates the RII β, isoform
- effect on RIα isoform [11, 16]: downregulates the RIα isoform
- antitumor effect (L1210 leukemia; 104 mg/kg bolus, seven consecutive days): no antitumor effect
- increase in mean life span (L1210 leukemia; constant infusion 104 mg/kg/day, five days): 37%

- IC50 (myc-K562): 1000 µM
Compound: CCCC(=O)Nc1ncnc2c1ncn2[C@@H]1O[C@@H]2COP(=O)(O)O[C@H]2[C@H]1OC(=O)CCC [DBcAMP, N^6, O^2' -dibutyryl-cAMP, reference compound]
- inhibition at 1000 µM ([1]; Homo sapiens, 1 mM): 15%
- tumor growth [3]: only arrests this tumor growth without producing regression
- RI and RII receptor levels [8]: the RI and RII receptor levels remained unchanged; also recorded: did not appreciably affect the RI or RII receptor levels
- inhibition at 500 µM (MCF-7 [9]): 20%
- activity at 500 µM (MCF-7 [9]; [15]): 80%
- DNA synthesis ([12]; added during first eight hours after serum addition): not delayed
- DNA synthesis ([12]; added more than eight hours after serum addition): inhibitory
- tumorigenicity (neuroblastoma cells): decreased; also recorded: unaltered
- tumor size ([13]; 3-6 mg/kg iv, five hours daily, days 1-9 and 47-56): The tumor size plateaued and even decreased during both infusion periods
- tumor histology ([13]; biopsied on days 2, 14, and 60): evidence of differentiation
- tumor biochemistry during growth arrest [14]: estrogen binding decreases whereas cAMP binding and cAMP-dependent protein kinase activity increase; also recorded: sharp reduction of the translated p21 protein
